Values of other authors in patent US6652866B1 (priority 1997, dated 2003).

System: scrapie
Details: hamsters

## C[C@@H]1[C@H](O)[C@@H](C)/C=C/C=C/C=C/C=C/C=C/C=C/C=C/[C@H](O[C@@H]2O[C@H](C)[C@@H](O)[C@H](N)[C@@H]2O)C[C@@H]2O[C@](O)(C[C@@H](O)C[C@@H](O)[C@H](O)CC[C@@H](O)C[C@@H](O)CC(=O)O[C@H]1C)C[C@H](O)[C@H]2C(=O)O [amphoteracin-b]
  incubation time of scrapie: prolonged the incubation time
  prevention of onset of neurological symptoms, neuronal destruction and death: ineffective
